According to patent US20230181746A1, “BENZOYLHYDRAZIDE-DERIVED HDAC DEGRADERS AS THERAPEUTICS FOR TREATING CANCER AND OTHER HUMAN DISEASES” (University of Florida Research Foundation, Inc., priority 2020, published 2023):

How the values were obtained:
Format in all cases: cell-based
HDAC1 = HDAC1 (Homo sapiens, UniProt Q13547); experiment: HDAC1 protein level in breast cancer cell lines, Western blot; conditions: MDA-MB-468 cells, 14 h
Protocol: (§1) FIG. 3A: Western blot showing HDAC protein levels in MDA-MB-468 cells treated with the indicated concentration of XZ9002 for 14 h. FIG. 3B: pretreatment with 1 μM MG132, or 10 μM VHL032 for 1 h blocked the degradation of HDAC3 by XZ9002 {125 nM}. […] NC: XZ9002-NC. FIG. 3C: time-dependent experiment in MDA-MB-468 cells after treatment with 125 nM XZ9002 at the indicated time points. FIG. 3D: MDA-MB-468 cells were incubated with 125 nM of XZ9002 for 14 h followed by drug washout, and incubation of the cells in drug-free medium for an additional time. Data are presented as representative figures of two independent experiments.
The culture of the triple-negative breast cancer cell line MDA-MB-468 and the ER+ breast cancer cell line T47D was exposed to vehicle control (DMSO) and the indicated compounds at specified concentrations for 14 h. Cells were lysed for WB with antibodies against the indicated proteins. Antibodies against acetylated histones at specific sites (H3K27 and H4K5) and acetyl-lysine were used to assess levels of histone acetylation. Levels of HDAC3 were normalized against that of tubulin and % of HDAC3 protein levels in cells treated with the indicated compounds relative to that in DMSO control is shown.
Cell lines were obtained from ATCC and subsequently authenticated. […]

[1] = system: breast cancer cell lines MCF7, T47D, MDA-MB-468, HCC-1143 and BT479; experiment: Clonogenic growth assay, breast cancer cell lines; conditions: compared with XZ9002-NC
Protocol: FIGS. 8A-8B show the cellular activity of XZ9002. […] Cells were lysed for WB. The relative HDAC3 protein level in each sample is shown. […] The indicated BC cell lines were exposed to DMSO, XZ9002, or XZ9002-NC at the indicated concentrations. Colonies were fixed and stained.
Cell lines were obtained from ATCC and subsequently authenticated. Cells were cultured with DMEM supplemented with 10% bovine calf serum, penicillin to 10 units/mL, and streptomycin to 10 μg/mL. For viability assays, 5,000 cells/well were seeded in 96-well plates. Compounds at a specified concentration or DMSO were added 24 h later. Viability assays were performed 72 h after compound addition using the CellTiter-Glo reagents (Promega). For colony formation assay, cells (˜1,000 cells/well) were seeded in a 24-well plate in quadruplicates. At 24 h after seeding, DMSO, XZ9002, or XZ9002-NC were added at a specified concentration. Medium was replaced with freshly prepared medium containing DMSO, XZ9002 or XZ9002-NC every five days until visible colonies appeared, typically in 15 to 20 days after initial cell seeding. Cells were fixed with 4% paraformaldehyde for 15 min and stained with 2% methylene blue in 20% ethanol for 30 min to 1 h. The cells were washed twice with distilled water and dried in air. For western blotting, cell cultures were exposed to compounds as indicated in relevant figures. […]

HDAC6 = molecular target: T1, HDAC6 (Homo sapiens, UniProt Q9UBN7); experiment: HDAC6 protein level in MDA-MB-468 cells, Western blot; conditions: 14 h
T1 construct: endogenous in cells; host or cells: MDA-MB-468
T1 sequence (Q9UBN7 1-1215): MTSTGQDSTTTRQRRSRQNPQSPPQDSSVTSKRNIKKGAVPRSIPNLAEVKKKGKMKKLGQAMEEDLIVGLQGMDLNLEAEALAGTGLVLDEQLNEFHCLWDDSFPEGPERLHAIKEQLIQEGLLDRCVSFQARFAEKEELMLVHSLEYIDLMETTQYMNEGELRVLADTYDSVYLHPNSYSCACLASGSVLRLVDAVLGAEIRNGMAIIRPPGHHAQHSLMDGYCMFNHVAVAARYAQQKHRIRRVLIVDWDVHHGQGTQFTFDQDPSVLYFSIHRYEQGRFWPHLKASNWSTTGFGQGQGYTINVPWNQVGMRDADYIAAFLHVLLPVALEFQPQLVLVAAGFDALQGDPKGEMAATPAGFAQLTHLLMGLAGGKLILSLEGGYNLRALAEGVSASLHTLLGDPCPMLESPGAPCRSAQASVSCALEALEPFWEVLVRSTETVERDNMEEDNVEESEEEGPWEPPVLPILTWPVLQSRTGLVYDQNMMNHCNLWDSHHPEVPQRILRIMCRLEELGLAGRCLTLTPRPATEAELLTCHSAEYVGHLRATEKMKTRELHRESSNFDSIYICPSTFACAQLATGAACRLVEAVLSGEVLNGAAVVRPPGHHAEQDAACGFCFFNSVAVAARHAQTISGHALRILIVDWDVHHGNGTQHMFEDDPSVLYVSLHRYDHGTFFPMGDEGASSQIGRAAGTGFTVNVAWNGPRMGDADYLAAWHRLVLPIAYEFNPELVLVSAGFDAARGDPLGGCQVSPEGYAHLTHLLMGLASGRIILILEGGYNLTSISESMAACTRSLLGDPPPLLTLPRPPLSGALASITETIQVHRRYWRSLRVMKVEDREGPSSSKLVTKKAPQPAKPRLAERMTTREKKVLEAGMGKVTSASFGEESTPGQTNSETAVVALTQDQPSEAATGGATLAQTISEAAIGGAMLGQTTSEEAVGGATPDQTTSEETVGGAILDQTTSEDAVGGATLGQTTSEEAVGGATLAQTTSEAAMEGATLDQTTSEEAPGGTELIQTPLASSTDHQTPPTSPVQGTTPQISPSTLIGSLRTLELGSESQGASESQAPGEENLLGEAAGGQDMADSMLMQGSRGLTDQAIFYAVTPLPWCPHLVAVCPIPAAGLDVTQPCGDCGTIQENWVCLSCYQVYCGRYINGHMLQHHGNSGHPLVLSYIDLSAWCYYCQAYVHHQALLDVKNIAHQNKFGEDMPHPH
Protocol: as §1
Cell lines were obtained from ATCC and subsequently authenticated. Cells were cultured with DMEM supplemented with 10% bovine calf serum, penicillin to 10 units/mL, and streptomycin to 10 μg/mL. For viability assays, 5,000 cells/well were seeded in 96-well plates. Compounds at a specified concentration or DMSO were added 24 h later. Viability assays were performed 72 h after compound addition using the CellTiter-Glo reagents (Promega). For colony formation assay, cells (˜1,000 cells/well) were seeded in a 24-well plate in quadruplicates. At 24 h after seeding, DMSO, XZ9002, or XZ9002-NC were added at a specified concentration. […]

HDAC1, sequence (Q13547 whole entry): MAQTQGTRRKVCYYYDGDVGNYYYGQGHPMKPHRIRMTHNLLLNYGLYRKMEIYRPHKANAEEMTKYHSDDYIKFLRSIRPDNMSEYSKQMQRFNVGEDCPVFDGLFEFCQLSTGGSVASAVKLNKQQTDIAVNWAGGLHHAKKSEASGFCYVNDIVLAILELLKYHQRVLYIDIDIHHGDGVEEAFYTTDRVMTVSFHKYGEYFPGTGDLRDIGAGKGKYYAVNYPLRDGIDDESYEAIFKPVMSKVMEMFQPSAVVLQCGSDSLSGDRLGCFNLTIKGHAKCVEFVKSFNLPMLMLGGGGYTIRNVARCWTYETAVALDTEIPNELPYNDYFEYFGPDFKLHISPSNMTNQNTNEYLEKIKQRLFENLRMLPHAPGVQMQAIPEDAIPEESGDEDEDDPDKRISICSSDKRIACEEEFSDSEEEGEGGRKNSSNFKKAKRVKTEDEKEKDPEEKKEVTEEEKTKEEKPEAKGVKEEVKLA

CCCNNC(=O)c1ccc(-c2ccc(NC(=O)CCCCCCC(=O)N[C@H](C(=O)N3C[C@H](O)C[C@H]3C(=O)N[C@@H](C)c3ccc(-c4scnc4C)cc3)C(C)(C)C)cc2)cc1 [XZ9002, N^1—((S)-1-((2S,4R)-4-hydroxy-2-(((S)-1-(4-(4-methylthiazol-5-yl)phenyl)ethyl)carbamoyl)pyrrolidin-1-yl)-3,3-dimethyl-1-oxobutan-2-yl)-N^5-(4′-(2-propylhydrazine-1-carbonyl)-[1,1′-biphenyl]-4-yl)octanediamide]
change in HDAC1 protein level (HDAC1): no significant changes
suppression of colony formation [1]: more potent to suppress colony formation
change in HDAC6 protein level (HDAC6): no significant changes
